pEC50, pKi: −log10 of the molar value. Structures can show the parent of a compound that is named as a salt. Each block holds one molecule with its values, some of them ahead of it.
Assays:
human 5-HT2C receptor = molecular target: T1, human 5-HT2C receptor (Homo sapiens, UniProt P28335); experiment: calcium mobilization (FLIPR) in CHO cells stably expressing the human 5-HT2C receptor; type: cell-based; conditions: for Emax: CHO, read-out: 5-HT2C Function EMax (%); for pEC50: calcium mobilization, read-out: 5-HT2C Function EC50
T1 sequence (P28335 33-458): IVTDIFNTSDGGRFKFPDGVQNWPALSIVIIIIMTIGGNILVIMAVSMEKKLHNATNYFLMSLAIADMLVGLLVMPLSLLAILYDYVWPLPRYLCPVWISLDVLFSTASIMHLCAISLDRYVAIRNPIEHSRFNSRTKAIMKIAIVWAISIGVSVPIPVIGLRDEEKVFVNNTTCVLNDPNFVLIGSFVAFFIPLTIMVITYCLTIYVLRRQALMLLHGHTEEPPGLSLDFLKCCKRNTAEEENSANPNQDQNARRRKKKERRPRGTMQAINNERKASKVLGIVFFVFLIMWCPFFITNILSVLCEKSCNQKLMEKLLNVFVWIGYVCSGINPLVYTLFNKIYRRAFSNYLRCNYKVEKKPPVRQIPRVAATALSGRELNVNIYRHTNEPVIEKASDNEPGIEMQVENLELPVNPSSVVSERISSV

[1] = obesity model, reduction of food intake in C57BL/6J-DIO mice; type: in vivo
Procedure: (§1) To evaluate acute in vivo efficacy of various compounds, 7 weeks-old male C57BL/6J mice are obtained from The Jackson Laboratory (Bar Harbor, Me.) and 6 weeks-old lean Zucker fa/? rats are purchased from Charles River Laboratories (Wilmington, Mass.). Mice and rats are single housed in a temperature-controlled (25° C.) facility with a 12-h light/dark cycle. Animals are allowed normal chow diet (Rodent chow #5001, PharmaServ, Framingham, Mass.) and water ad libitum. After one week acclimation, animals are randomized to vehicle (saline) or treatment groups. Animals are fasted overnight (16 hrs) and orally dosed with vehicle or compounds. Thirty minutes after compound administration, animals are given a weighed amount of food, and food intake was recorded 30 minutes, 1 h, 2 h, 4 h, 7 h and 24 h after refeeding.
(§2) To assess in vivo efficacy of various 5-HT2C compounds on weight loss, 5 weeks-old male C57BL/6J-DIO mice were fed a high-fat high-sucrose diet (58 kcal % fat, 16.4 kcal % protein, 25.5 kcal % carbohydrate) for 11 weeks. 6 weeks-old male Zucker fa/fa rats purchased from Charles River Laboratories were also used. Mice and rats were single housed in a temperature-controlled (25° C.) facility with a 12-h light/dark cycle. Animals were allowed food and water ad libitum. After one week acclimation, animals were randomized to vehicle (saline) or treatment groups. Animals were orally dosed once daily for 14 days. Body weight, food consumption, and/or body composition (NMR) were recorded. Epidydimal adipose tissue was collected at the end of the study.

[2] = obesity model, reduction of food intake in Zucker rats; type: in vivo
Procedure: as §1, §2

[3] = molecular target: T2, human 5-hydroxytryptamine-2C (h5-HT2C) receptor (Homo sapiens, UniProt P28335); experiment: [125I]DOI binding to membranes of CHO cells expressing h5-HT2C receptor; conditions: read-out: 5-HT2C Binding Ki avg
T2 construct: expressed in transfected cells; host or cells: CHO (Chinese Hamster Ovary) cells; membrane preparation
T2 sequence (P28335 33-458): T1 sequence (P28335 33-458)

melting point: 220 to 222 °C
Compound: NC[C@H]1CCc2ccc(Cl)c(-c3ccccc3Cl)c2O1 (as salt: hydrochloride)

melting point: 164 to 166 °C
Compound: NC[C@H]1CCc2ccc(F)c(-c3ccc(Cl)cc3Cl)c2O1 (as salt: hydrochloride)

melting point: 98 °C
Compound: NC[C@H]1CCc2cc(F)cc(-c3ccccc3-c3ccccc3)c2O1 (as salt: hydrochloride)

Compound: NC[C@H]1CCc2cccc(-c3c(Cl)cccc3Cl)c2O1 (as salt: hydrochloride) [Compound 36, {[(2R)-8-(2,6-dichlorophenyl)-3,4-dihydro-2H-chromen-2-yl]methyl}amine hydrochloride]
melting point: 188 to 190 °C

Compound: COc1ccccc1-c1cc(F)cc2c1O[C@@H](CN)CC2 (as salt: hydrochloride) [Compound 38, 1-[(2R)-6-fluoro-8-(2-methoxyphenyl)-3,4-dihydro-2H-chromen-2-yl]methanamine hydrochloride]
melting point: 100 °C (dec.)

Compound: NC[C@H]1CCc2cc(F)cc(-c3c(Cl)cccc3Cl)c2O1 (as salt: hydrochloride) [Compound 57, {[(2R)-8-(2,6-dichlorophenyl)-6-fluoro-3,4-dihydro-2H-chromen-2-yl]methyl}amine hydrochloride]
melting point: 190 to 192 °C

Compound: CCNC[C@H]1CCc2cc(F)cc(-c3c(Cl)cccc3Cl)c2O1 (as salt: hydrochloride) [Compound 58, N-{[(2R)-8-(2,6-dichlorophenyl)-6-fluoro-3,4-dihydro-2H-chromen-2-yl]methyl}ethanamine hydrochloride]
melting point: > 225 °C

Compound: NC[C@H]1C=Cc2cc(F)cc(-c3cc(Cl)ccc3Cl)c2O1 (as salt: hydrochloride) [Compound 63, {[(2R)-8-(2,5-dichlorophenyl)-6-fluoro-2H-chromen-2-yl]methyl}amine hydrochloride]
melting point: 217 to 219 °C

Compound: NC[C@H]1C=Cc2cc(F)cc(-c3ccccc3Cl)c2O1 (as salt: hydrochloride) [Compound 64, {[(2R)-8-(2-chlorophenyl)-6-fluoro-2H-chromen-2-yl]methyl}amine hydrochloride]
melting point: 145 to 147 °C

Compound: COc1ccccc1-c1cc(F)cc2c1O[C@@H](CN)C=C2 (as salt: hydrochloride) [Compound 65, {[(2R)-6-fluoro-8-(2-methoxyphenyl)-2H-chromen-2-yl]methyl}amine hydrochloride]
melting point: 198 to 200 °C

Compound: NC[C@H]1C=Cc2cc(F)cc(-c3c(Cl)cccc3Cl)c2O1 (as salt: hydrochloride) [Compound 66, {[(2R)-8-(2,6-dichlorophenyl)-6-fluoro-2H-chromen-2-yl]methyl}amine hydrochloride]
melting point: 153 to 155 °C

melting point: 155 °C
Compound: Cc1ccccc1-c1c(Cl)ccc2c1O[C@@H](CN)CC2 (as salt: hydrochloride) [Compound 69, ((2R)-7-Chloro-8-o-tolylchroman-2-yl)methanamine hydrochloride]

melting point: 223 to 225 °C
Compound: NC[C@H]1CCc2ccc(F)c(-c3ccccc3Cl)c2O1 (as salt: hydrochloride) [Compound 71, ((2R)-8-(2-chlorophenyl)-7-fluorochroman-2-yl)methanamine hydrochloride]

melting point: 100 to 102 °C
Compound: Cc1cc(Cl)ccc1-c1c(F)ccc2c1O[C@@H](CN)CC2 (as salt: hydrochloride) [Compound 72, ((2R)-8-(4-Chloro-2-methylphenyl)-7-fluorochroman-2-yl)methanamine hydrochloride]

Compound: NC[C@H]1CCc2cccc(-c3c(Cl)cccc3Cl)c2O1 [Compound 36, {[(2R)-8-(2,6-dichlorophenyl)-3,4-dihydro-2H-chromen-2-yl]methyl}amine hydrochloride]
Emax (human 5-HT2C receptor): 80%
pEC50 (human 5-HT2C receptor): > 7.30
% Reduction food intake (vs vehicle) ([1]; 30 mpk oral, 0.5 hour): 86 ± 11%
% Reduction food intake (vs vehicle) ([1]; 30 mpk oral, 2 hours): 72 ± 7%
% Reduction food intake (vs vehicle) ([1]; 30 mpk oral, 4 hours): 65 ± 8%
% Reduction food intake (vs vehicle) ([1]; 50 mpk oral, 0.5 hour): 83 ± 6%
% Reduction food intake (vs vehicle) ([1]; 50 mpk oral, 2 hours): 77 ± 6%
% Reduction food intake (vs vehicle) ([1]; 50 mpk oral, 4 hours): 67 ± 9%
% Reduction food intake (vs vehicle) ([2]; 30 mpk oral, 0.5 hour): 0 ± 16%
% Reduction food intake (vs vehicle) ([2]; 30 mpk oral, 2 hours): 0 ± 8%
% Reduction food intake (vs vehicle) ([2]; 30 mpk oral, 4 hours): 0 ± 9%
% Reduction food intake (vs vehicle) ([2]; 50 mpk oral, 0.5 hour): 58 ± 9%
% Reduction food intake (vs vehicle) ([2]; 50 mpk oral, 2 hours): 11 ± 17%
% Reduction food intake (vs vehicle) ([2]; 50 mpk oral, 4 hours): 0 ± 13%
pKi [3]: ≥ 8.00

Compound: NC[C@H]1C=Cc2cc(F)cc(-c3c(Cl)cccc3Cl)c2O1 [Compound 66, {[(2R)-8-(2,6-dichlorophenyl)-6-fluoro-2H-chromen-2-yl]methyl}amine hydrochloride]
Emax (human 5-HT2C receptor): 90%
pEC50 (human 5-HT2C receptor): > 7.30
pKi [3]: ≥ 8.00

Compound: NC[C@H]1CCCc2cccc(-c3c(Cl)cccc3Cl)c2O1 [Compound 67, {[(2R)-9-(2,6-dichlorophenyl)-2,3,4,5-tetrahydro-1-benzoxepin-2-yl]methyl}amine hydrochloride]
Emax (human 5-HT2C receptor): 80%
pEC50 (human 5-HT2C receptor): 6.70 to 7.30
pKi [3]: 7.30 to 8.00

Compound: NC[C@H]1CCCc2cc(F)cc(-c3c(Cl)cccc3Cl)c2O1 [Compound 68, {[(2R)-9-(2,6-dichlorophenyl)-7-fluoro-2,3,4,5-tetrahydro-1-benzoxepin-2-yl]methyl}amine hydrochloride]
Emax (human 5-HT2C receptor): 80%
pEC50 (human 5-HT2C receptor): 6.70 to 7.30
pKi [3]: 7.30 to 8.00
